Calls of active or inactive are those of the source. The rule behind the calls is not given here.

This assay deals with Chaperone protein DnaK (Escherichia coli (strain K12)) (UniProt P0A6Y8). Description: E. coli DnaK SBD ligand binding – biophysical, NMR, chaperone (AID 1033). The conditions noted are these: Purified DnaK SBD.
Chaperone protein DnaK (Escherichia coli (strain K12)), sequence (P0A6Y8 whole entry, looked up): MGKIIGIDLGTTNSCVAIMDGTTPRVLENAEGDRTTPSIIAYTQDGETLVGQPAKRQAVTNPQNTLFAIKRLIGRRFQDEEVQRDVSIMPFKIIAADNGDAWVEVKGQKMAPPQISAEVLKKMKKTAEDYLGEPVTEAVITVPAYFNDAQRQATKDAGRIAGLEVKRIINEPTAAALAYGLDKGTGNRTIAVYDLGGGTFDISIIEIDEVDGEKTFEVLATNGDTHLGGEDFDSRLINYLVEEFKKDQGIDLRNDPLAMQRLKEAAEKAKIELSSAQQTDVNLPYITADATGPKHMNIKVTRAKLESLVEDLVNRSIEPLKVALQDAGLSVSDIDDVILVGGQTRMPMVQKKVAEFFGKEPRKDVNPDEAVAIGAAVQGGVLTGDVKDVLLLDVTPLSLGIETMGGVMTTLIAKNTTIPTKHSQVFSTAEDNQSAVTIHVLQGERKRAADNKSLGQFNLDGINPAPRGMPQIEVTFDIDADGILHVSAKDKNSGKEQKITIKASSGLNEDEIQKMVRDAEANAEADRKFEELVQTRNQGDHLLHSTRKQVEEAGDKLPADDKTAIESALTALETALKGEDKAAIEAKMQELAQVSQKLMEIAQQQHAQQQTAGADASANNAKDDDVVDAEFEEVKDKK
Regarding `COc1ccc(/C=C2/C(=O)N=C(N)N2C)cc1OC`, the Kd is > 4 mM (inactive).

With `CC1=CC2C(C(C)C)CCC(C)(O)C2CC1` (stereo not drawn), the Kd was > 4 mM (inactive).

For the molecule `CCC(=O)Nc1cccc(NC(C)=O)c1`, the Kd is > 4 mM (inactive).

On to `Cn1c(O)c(/C=C2\C=CC=N2)c(=O)[nH]c1=O`, for which the Kd was > 4 mM (inactive).

Take `Cc1cc(C(=O)N2CCN(c3ncccn3)CC2)cs1`: the Kd is > 4 mM (inactive).

`Cc1onc(-c2c(F)cccc2Cl)c1C(N)=O`: the Kd is > 4 mM (inactive).

Consider `Nn1c(CN2CCCCC2)nc2ccccc2c1=O`, for which the Kd was > 4 mM (inactive).

For `Cc1ccc(S(=O)(=O)CC(N)=O)cc1`, the Kd is > 4 mM (inactive).

In the case of `O=C(O)Cn1c(=O)sc2ccccc21`, the Kd was > 4 mM (inactive).

For `C[C@@H]1CC[C@@]23CCC4(C)[C@@](C=CC5[C@@]6(C)CC[C@H](O)C(C)(C)C6CC[C@]54C)(OC2=O)C3[C@H]1C` (stereo partly drawn), the Kd is > 4 mM (inactive).

Take `COc1cc2c(cc1OC)Cc1cc(OC)c(OC)cc1Cc1cc(OC)c(OC)cc1C2`: the Kd was > 4 mM (inactive).

With `O=C(Nc1cccc(C(F)(F)F)c1)c1cccnc1`, the Kd was > 4 mM (inactive).

On to `O=c1c(O)c(-c2ccc(O)cc2O)oc2cc(O)cc(O)c12`, for which the Kd is > 4 mM (inactive).

As to `CC(C)=CC(=O)Nc1ccc(S(N)(=O)=O)cc1`, the Kd is > 4 mM (inactive).

On to `Cc1cc(C)nc(/N=C(\N)N2CCc3ccccc32)n1`, for which the Kd is > 4 mM (inactive).

In the case of `Cc1cc(C)n2c(SCc3cccs3)nnc2n1`, the Kd was > 4 mM (inactive).

For `O=c1oc(-c2ccccc2)nc2c1cnn2-c1ccccc1`, the Kd was > 4 mM (inactive).

With `Cn1c(NCc2ccco2)nc2ccccc21`, the Kd is > 4 mM (inactive).

As to `O=C(O)CC1C(=O)NCCN1Cc1cccs1` (stereo not drawn), the Kd was > 4 mM (inactive).

As to `O=C1CSC(=O)N1CN1CCCC1`, the Kd was > 4 mM (inactive).

Consider `CC(=O)Nc1sccc1C(=O)NC(N)=O`, for which the Kd is > 4 mM (inactive).

As for `CC(=O)Nc1ccncc1NC(C)=O`, the Kd was > 4 mM (inactive).

In the case of `O=C(Nc1ccc(Cl)cc1)N1CCCC1`, the Kd is > 4 mM (inactive).

Turning to `Cc1oc(-c2ccccc2)cc1C(=O)O`, the Kd was > 4 mM (inactive).

With `COc1ccc([C@@H]2CC(=O)c3c(O)cc(O[C@@H]4O[C@H](CO[C@H]5O[C@@H](C)[C@H](O)[C@@H](O)[C@H]5O)[C@@H](O)[C@H](O)[C@H]4O)cc3O2)cc1O`, the Kd is > 4 mM (inactive).

Regarding `O=C1CSC(=Nc2ccc(F)cc2)N1`, the Kd is > 4 mM (inactive).

Regarding `O=S(=O)(Cc1ccccc1)N1CCCCCC1`, the Kd was > 4 mM (inactive).

On to `CC(=O)c1c(O)cc(C)n(Cc2ccccc2)c1=O`, for which the Kd is > 4 mM (inactive).

As to `C[N+](C)(C)CC(=O)[O-]`, the Kd is > 4 mM (inactive).

Consider `CC(=O)O[C@@H]1CC2C(C)(C)C(=O)[C@@H]3O[C@@H]3[C@]2(C)C2CC[C@]3(C)C(=CC(=O)O[C@H]3c3ccoc3)[C@@]21C` (stereo partly drawn), for which the Kd was > 4 mM (inactive).

With `Nc1nnc(C(F)(F)F)s1`, the Kd was > 4 mM (inactive).

Consider `O=C(O)c1c[nH]c2ccccc12`, for which the Kd is > 4 mM (inactive).

Consider `CN(C)Cc1nc2c([nH]1)c(=O)[nH]c(=O)n2C`, for which the Kd is > 4 mM (inactive).

On to `O=C1C=CC(=O)N1c1ccc(N2CCOCC2)cc1`, for which the Kd was > 4 mM (inactive).

Turning to `CC(C)(C)CC(=O)N1CCC(C(N)=O)CC1`, the Kd was > 4 mM (inactive).

Regarding `Cc1cc(C)n2nc(Cc3ccccc3)nc2n1`, the Kd is > 4 mM (inactive).

As for `O=C1C=CC2=C3c4cc(O)c(O)cc4C[C@@]3(O)COC2=C1`, the Kd was > 4 mM (inactive).

Regarding `Cc1cc2c(=O)n(C)c(SCC(N)=O)nc2s1`, the Kd was > 4 mM (inactive).

In the case of `COc1cccc(=O)c2c(C)n(C)c(C)c12`, the Kd is > 4 mM (inactive).

Take `CC1(C)C2CC(=O)[C@]3(C)C(CC[C@@]4(C)[C@H](c5ccoc5)OC(=O)C5OC543)[C@@]2(C)[C@@H](O)C[C@H]1O` (stereo partly drawn): the Kd is > 4 mM (inactive).

As to `NCc1csc(-c2ccccc2)n1`, the Kd is > 4 mM (inactive).

For the molecule `CC(=O)N1CC2(C)CN(C(C)=O)CC(C)(C1)C2O` (stereo not drawn), the Kd was > 4 mM (inactive).

Take `CC1(C)Cc2c(c(-c3ccco3)[nH]c(=O)c2C#N)CO1`: the Kd was > 4 mM (inactive).

With `O=C1NCCCC1C(=O)N1CCCCC1` (stereo not drawn), the Kd is > 4 mM (inactive).

`CC(C)n1c(Nn2cnnc2)nc2ccccc21`: the Kd was > 4 mM (inactive).

For the molecule `COc1cc(C)nc(N(CCO)CCO)n1`, the Kd was > 4 mM (inactive).

Regarding `CC(=O)Nc1ccc2c(c1)CCC2=O`, the Kd was > 4 mM (inactive).

With `COc1cc(C)c(Cl)cc1S(=O)(=O)N(C)C`, the Kd is > 4 mM (inactive).

For the molecule `C#CCCCCCCCCCCCC(=O)CC(O)COC(C)=O` (stereo not drawn), the Kd was > 4 mM (inactive).

As to `OCc1ccc2ncccc2c1`, the Kd was > 4 mM (inactive).

In the case of `O=C(NCc1ccccc1Cl)c1cnn2cccnc12`, the Kd is > 4 mM (inactive).

Take `NC(=O)c1cccc(N2C(=O)C=CC2=O)c1`: the Kd is > 4 mM (inactive).

As to `O=C(Nc1ccc2c(c1)CCC2)c1cnccn1`, the Kd was > 4 mM (inactive).

Regarding `O=C(O)CSCc1ccc(Cl)cc1`, the Kd is > 4 mM (inactive).

With `CN1CCC(N(C)Cc2cccnc2)CC1`, the Kd was > 4 mM (inactive).

On to `COC(=O)c1cccc2cc[nH]c12`, for which the Kd was > 4 mM (inactive).

Take `OC[C@H]1O[C@@H](Oc2ccc(O)cc2)[C@H](O)[C@@H](O)[C@@H]1O`: the Kd is > 4 mM (inactive).

Turning to `Cc1nnc2sc(-c3ccco3)nn12`, the Kd was > 4 mM (inactive).

As for `NC(=O)NC1NC(=O)NC1=O` (stereo not drawn), the Kd was > 4 mM (inactive).

In the case of `CS(=O)(=O)CCCCN=C=S`, the Kd is > 4 mM (inactive).

With `COc1ccc(C(=O)O)cc1OC`, the Kd was > 4 mM (inactive).

Take `CSc1nc2nc(C)cc(=O)n2[nH]1`: the Kd is > 4 mM (inactive).

On to `C=C1C2CC[C@@]3(C)[C@H](c4ccoc4)OC(=O)C[C@]13O[C@H]1CC(=O)C(C)(C)C(CC(=O)OC)C21C` (stereo partly drawn), for which the Kd was > 4 mM (inactive).

As for `COC(=O)c1cccc(C(F)(F)F)c1`, the Kd was > 4 mM (inactive).

In the case of `O=C1CC(c2c[nH]c3ccccc23)C(=O)N1` (stereo not drawn), the Kd is > 4 mM (inactive).

In the case of `O=C1CSC(=S)N1N1C(=O)C2C3C=CC(C3)C2C1=O` (stereo not drawn), the Kd was > 4 mM (inactive).

Regarding `Clc1ccc2c(N3CCNCC3)ccnc2c1`, the Kd was > 4 mM (inactive).

On to `O=C(O)c1cccc(N2C(=O)C3CC=CCC3C2=O)c1` (stereo not drawn), for which the Kd was > 4 mM (inactive).

On to `Cc1cc(C(=O)Nc2sc(C)c(C)c2C#N)no1`, for which the Kd was > 4 mM (inactive).

Consider `Nc1ccccc1N=C1CNC(=O)C1`, for which the Kd was > 4 mM (inactive).

For the molecule `CCc1c(C)n([O-])c2c([n+]1=O)CCC2`, the Kd was > 4 mM (inactive).

With `CC(=O)Nc1nnc(-c2ccco2)o1`, the Kd is > 4 mM (inactive).

As for `NC1=NC(=O)C(CC(=O)Nc2ccccc2F)S1` (stereo not drawn), the Kd is > 4 mM (inactive).

As to `O=C(CSc1ncn[nH]1)c1ccccc1`, the Kd is > 4 mM (inactive).

In the case of `O=C(Nc1cccc2ncccc12)c1cccnc1`, the Kd is > 4 mM (inactive).

`CC(CC(=O)NN)C1(O)CCCCC1` (stereo not drawn): the Kd was > 4 mM (inactive).

On to `N#Cc1nc(-c2ccccc2Cl)oc1N1CCOCC1`, for which the Kd is > 4 mM (inactive).

For the molecule `CC(=O)Nc1ccc(N(C)C(C)=O)cc1`, the Kd was > 4 mM (inactive).

Consider `Cc1cc(C)c2nncn2n1`, for which the Kd was > 4 mM (inactive).

Take `COc1c(C(=O)N2CCCC2)ccc2ccccc12`: the Kd was > 4 mM (inactive).

For the molecule `CC(CCC(=O)O)[C@H]1CCC2C3C[C@H](O)[C@@H]4C[C@H](O)CC[C@]4(C)C3CC[C@@]21C` (stereo partly drawn), the Kd is > 4 mM (inactive).

On to `COc1cc(OC)c2c(=O)c(-c3ccc4c(c3)OCO4)coc2c1`, for which the Kd is > 4 mM (inactive).

For `CSc1ccc(C(=S)N2CCN(C)CC2)cc1`, the Kd is > 4 mM (inactive).

For the molecule `C=C1CSc2nc(=O)c3c(C)c(C)sc3n21`, the Kd is > 4 mM (inactive).

On to `OCc1cccc2c1OCO2`, for which the Kd is > 4 mM (inactive).

As to `Cc1nc2sc3c(c2c(=N)n1N)CC(C)(C)OC3`, the Kd was > 4 mM (inactive).

For the molecule `Cc1ccc(C(=O)N2CCOCC2)cc1Cl`, the Kd is > 4 mM (inactive).

For the molecule `CC(CC(O)C1OC1(C)C)[C@@H]1CCC2(C)C3=CCC4C(C)(C)C(=O)CCC4(C)C3CC[C@@]12C` (stereo partly drawn), the Kd was > 4 mM (inactive).

Take `COCc1c(CN)cnc(C)c1N`: the Kd is > 4 mM (inactive).

Take `OCc1ccc(Oc2ccccc2)nc1`: the Kd was > 4 mM (inactive).

`CC(C)=CCOc1cc2oc(=O)ccc2cc1O`: the Kd is > 4 mM (inactive).

For the molecule `O=C(O)CCC(=O)Nc1ccccn1`, the Kd was > 4 mM (inactive).

Regarding `OCC1COc2ccccc2O1` (stereo not drawn), the Kd was > 4 mM (inactive).

On to `Cc1c(N=CN2CCOCC2)c(=O)n(C)c(=O)n1C`, for which the Kd was > 4 mM (inactive).

In the case of `CCNCC(O)c1ccc([N+](=O)[O-])cc1` (stereo not drawn), the Kd is > 4 mM (inactive).

In the case of `CN(C)c1ccc(NC(=O)CC(C(=O)O)N(C)C)cc1` (stereo not drawn), the Kd was > 4 mM (inactive).

Take `O=C(Nc1ccccc1CO)c1ccccc1F`: the Kd was > 4 mM (inactive).

`CN1CCC(NC(=O)c2cnccn2)CC1`: the Kd was > 4 mM (inactive).

With `CSc1nc(C)cc(Oc2ccc(=O)n(C)n2)n1`, the Kd was > 4 mM (inactive).

Take `Nc1ccc(-c2csnn2)cc1`: the Kd was > 4 mM (inactive).

In the case of `N[C@@H](Cc1ccc(O)c(O)c1)C(=O)O`, the Kd was > 4 mM (inactive).

In the case of `O=C(O)C1(O)C[C@@H](O)C(O)[C@H](O)C1` (stereo partly drawn), the Kd is > 4 mM (inactive).

Take `CC(=O)c1ccc(NC(=O)c2ocnc2C)cc1`: the Kd was > 4 mM (inactive).

The values above are taken from PubChem BioAssay AID1033 (Sanford-Burnham Center for Chemical Genomics, 2008).
